Test results: PubChem BioAssay (NCI)
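Step 1: Grow cells in 96-well plates. Step 2: Expose to compound for 48 hours at 5 concentrations. Step 3: Interpolate endpoints linearly; if unreached, use highest concentration. At the GI50, growth is halved. TGI denotes the concentration required for complete inhibition of growth.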

Columns and labels:
Test in all cases: NCI-60 cell line screen, 48 h
MALME-3M melanoma = test system: MALME-3M melanoma
SK-MEL-2 melanoma = test system: SK-MEL-2 melanoma
TK-10 renal = test system: TK-10 renal
DU-145 prostate = test system: DU-145 prostate
MOLT-4 leukemia = test system: MOLT-4 leukemia
OVCAR-5 ovarian = test system: OVCAR-5 ovarian
A549 NSCLC = test system: A549 NSCLC
SW-620 colon = test system: SW-620 colon
786-0 renal = test system: 786-0 renal
SNB-75 CNS = test system: SNB-75 CNS
MDA-MB-435 = test system: MDA-MB-435
BT-549 breast = test system: BT-549 breast
SN12C renal = test system: SN12C renal
CCRF-CEM leukemia = test system: CCRF-CEM leukemia
NCI/ADR-RES ovarian = test system: NCI/ADR-RES ovarian
SF-268 CNS = test system: SF-268 CNS
PC-3 prostate = test system: PC-3 prostate
HCC-2998 colon = test system: HCC-2998 colon
SK-MEL-5 melanoma = test system: SK-MEL-5 melanoma
NCI-H226 lung = test system: NCI-H226 lung
SF-295 CNS = test system: SF-295 CNS
NCI-H460 lung = test system: NCI-H460 lung
HT29 colon = test system: HT29 colon
SK-MEL-28 melanoma = test system: SK-MEL-28 melanoma
HL-60(TB) leukemia = test system: HL-60(TB) leukemia
IGROV1 ovarian = test system: IGROV1 ovarian
MDA-MB-231 breast = test system: MDA-MB-231 breast
UO-31 renal = test system: UO-31 renal
T-47D breast = test system: T-47D breast
OVCAR-3 ovarian = test system: OVCAR-3 ovarian
SNB-19 CNS = test system: SNB-19 CNS
KM12 colon = test system: KM12 colon
MCF7 breast = test system: MCF7 breast
HCT-15 colon = test system: HCT-15 colon
SK-OV-3 ovarian = test system: SK-OV-3 ovarian
HCT-116 colon = test system: HCT-116 colon
RXF 393 renal = test system: RXF 393 renal
HS 578T breast = test system: HS 578T breast
LOX IMVI melanoma = test system: LOX IMVI melanoma
NCI-H522 lung = test system: NCI-H522 lung
M14 melanoma = test system: M14 melanoma
OVCAR-8 ovarian = test system: OVCAR-8 ovarian
SR leukemia = test system: SR leukemia
UACC-62 melanoma = test system: UACC-62 melanoma
NCI-H23 lung = test system: NCI-H23 lung
CAKI-1 renal = test system: CAKI-1 renal
UACC-257 melanoma = test system: UACC-257 melanoma
SF-539 CNS = test system: SF-539 CNS
A498 renal = test system: A498 renal
RPMI-8226 leukemia = test system: RPMI-8226 leukemia
K-562 leukemia = test system: K-562 leukemia
HOP-92 NSCLC = test system: HOP-92 NSCLC
HOP-62 NSCLC = test system: HOP-62 NSCLC
ACHN renal = test system: ACHN renal
U251 CNS = test system: U251 CNS
COLO 205 colon = test system: COLO 205 colon
OVCAR-4 ovarian = test system: OVCAR-4 ovarian

## O=C(CCl)Nc1ccc2c(c1)C(=O)c1ccc(NC(=O)CCl)cc1C2=O
MALME-3M melanoma
  GI50: 0.219 µM
  TGI: 0.888 µM
SK-MEL-2 melanoma
  GI50: 0.783 µM
  TGI: 3.84 µM
TK-10 renal
  GI50: 1.81 µM
  TGI: 7.33 µM
DU-145 prostate
  GI50: 1.41 µM
  TGI: 3.45 µM
MOLT-4 leukemia
  GI50: 0.241 µM
  TGI: 2.13 µM
OVCAR-5 ovarian
  GI50: 0.371 µM
  TGI: 1.63 µM
A549 NSCLC
  GI50: 2.79 µM
  TGI: > 100 µM
SW-620 colon
  GI50: 0.198 µM
  TGI: 0.493 µM
786-0 renal
  GI50: 0.193 µM
  TGI: 0.537 µM
SNB-75 CNS
  GI50: 1.01 µM
  TGI: 2.22 µM
MDA-MB-435
  GI50: 0.395 µM
  TGI: 1.81 µM
BT-549 breast
  GI50: 0.22 µM
  TGI: 0.857 µM
SN12C renal
  GI50: 0.35 µM
  TGI: 1.76 µM
CCRF-CEM leukemia
  GI50: 0.127 µM
  TGI: 0.896 µM
NCI/ADR-RES ovarian
  GI50: 0.352 µM
  TGI: 1.78 µM
SF-268 CNS
  GI50: 0.386 µM
  TGI: 1.92 µM
PC-3 prostate
  GI50: 0.876 µM
  TGI: 2.5 µM
HCC-2998 colon
  GI50: 1.77 µM
  TGI: 3.79 µM
SK-MEL-5 melanoma
  GI50: 0.214 µM
  TGI: 0.502 µM
NCI-H226 lung
  GI50: 0.229 µM
  TGI: 0.711 µM
SF-295 CNS
  GI50: 1.44 µM
  TGI: 3.29 µM
NCI-H460 lung
  GI50: 0.387 µM
  TGI: 1.53 µM
HT29 colon
  GI50: 0.314 µM
  TGI: 4.21 µM
SK-MEL-28 melanoma
  GI50: 0.321 µM
  TGI: 1.33 µM
HL-60(TB) leukemia
  GI50: 0.454 µM
  TGI: 3.08 µM
IGROV1 ovarian
  GI50: 0.26 µM
  TGI: 1.15 µM
MDA-MB-231 breast
  GI50: 0.486 µM
  TGI: 2.36 µM
UO-31 renal
  GI50: 0.449 µM
  TGI: 1.88 µM
T-47D breast
  GI50: 1.22 µM
  TGI: 3.95 µM
OVCAR-3 ovarian
  GI50: 0.277 µM
  TGI: 0.885 µM
SNB-19 CNS
  GI50: 0.547 µM
  TGI: 2.98 µM
KM12 colon
  GI50: 1.06 µM
  TGI: 2.42 µM
MCF7 breast
  GI50: 0.194 µM
  TGI: 0.79 µM
HCT-15 colon
  GI50: 0.183 µM
  TGI: 0.469 µM
SK-OV-3 ovarian
  GI50: 1.63 µM
  TGI: 7.01 µM
HCT-116 colon
  GI50: 0.199 µM
  TGI: 0.768 µM
RXF 393 renal
  GI50: 0.288 µM
  TGI: 0.928 µM
HS 578T breast
  GI50: 1.29 µM
  TGI: 9.57 µM
LOX IMVI melanoma
  GI50: 0.0935 µM
  TGI: 0.229 µM
NCI-H522 lung
  GI50: 0.194 µM
  TGI: 0.57 µM
M14 melanoma
  GI50: 0.236 µM
  TGI: 0.781 µM
OVCAR-8 ovarian
  GI50: 0.439 µM
  TGI: > 100 µM
SR leukemia
  GI50: 0.0959 µM
  TGI: 1.98 µM
UACC-62 melanoma
  GI50: 0.299 µM
  TGI: 0.99 µM
NCI-H23 lung
  GI50: 0.253 µM
  TGI: 0.834 µM
CAKI-1 renal
  GI50: 0.683 µM
  TGI: 1.98 µM
UACC-257 melanoma
  GI50: 1.8 µM
  TGI: 4.87 µM
SF-539 CNS
  GI50: 0.301 µM
  TGI: 0.866 µM
A498 renal
  GI50: 3.49 µM
  TGI: 27.6 µM
RPMI-8226 leukemia
  GI50: 0.434 µM
  TGI: 2.23 µM
K-562 leukemia
  GI50: 0.319 µM
  TGI: > 100 µM
HOP-92 NSCLC
  GI50: 1.13 µM
  TGI: 2.61 µM

## CCc1ccc(Nc2cc(C)nc3nc(C)nn23)cc1
MALME-3M melanoma
  GI50: 69.5 µM
  TGI: > 100 µM
SK-MEL-2 melanoma
  GI50: > 100 µM
  TGI: > 100 µM
TK-10 renal
  GI50: 61.7 µM
  TGI: > 100 µM
DU-145 prostate
  GI50: 35.1 µM
  TGI: > 100 µM
MOLT-4 leukemia
  GI50: 33.3 µM
  TGI: > 100 µM
OVCAR-5 ovarian
  GI50: > 100 µM
  TGI: > 100 µM
A549 NSCLC
  GI50: 45.4 µM
  TGI: > 100 µM
SW-620 colon
  GI50: > 100 µM
  TGI: > 100 µM
786-0 renal
  GI50: > 100 µM
  TGI: > 100 µM
SNB-75 CNS
  GI50: 35.6 µM
  TGI: > 100 µM
MDA-MB-435
  GI50: 53.8 µM
  TGI: > 100 µM
BT-549 breast
  GI50: > 100 µM
  TGI: > 100 µM
SN12C renal
  GI50: 46.1 µM
  TGI: > 100 µM
CCRF-CEM leukemia
  GI50: 48.1 µM
  TGI: > 100 µM
HOP-62 NSCLC
  GI50: > 100 µM
  TGI: > 100 µM
NCI/ADR-RES ovarian
  GI50: 49.4 µM
  TGI: > 100 µM
SF-268 CNS
  GI50: 69.1 µM
  TGI: > 100 µM
ACHN renal
  GI50: 34.8 µM
  TGI: > 100 µM
PC-3 prostate
  GI50: 53.3 µM
  TGI: > 100 µM
HCC-2998 colon
  GI50: > 100 µM
  TGI: > 100 µM
SK-MEL-5 melanoma
  GI50: 32.9 µM
  TGI: > 100 µM
U251 CNS
  GI50: 75.2 µM
  TGI: > 100 µM
NCI-H226 lung
  GI50: 85 µM
  TGI: > 100 µM
SF-295 CNS
  GI50: 78.2 µM
  TGI: > 100 µM
NCI-H460 lung
  GI50: 71.1 µM
  TGI: > 100 µM
COLO 205 colon
  GI50: 66.9 µM
  TGI: > 100 µM
HT29 colon
  GI50: 39.8 µM
  TGI: > 100 µM
SK-MEL-28 melanoma
  GI50: 48.8 µM
  TGI: > 100 µM
HL-60(TB) leukemia
  GI50: > 100 µM
  TGI: > 100 µM
IGROV1 ovarian
  GI50: 61.2 µM
  TGI: > 100 µM
MDA-MB-231 breast
  GI50: 31.4 µM
  TGI: > 100 µM
UO-31 renal
  GI50: 23.6 µM
  TGI: > 100 µM
T-47D breast
  GI50: 21.3 µM
  TGI: > 100 µM
OVCAR-3 ovarian
  GI50: 37.8 µM
  TGI: > 100 µM
SNB-19 CNS
  GI50: 53.4 µM
  TGI: > 100 µM
KM12 colon
  GI50: 70.6 µM
  TGI: > 100 µM
MCF7 breast
  GI50: 36.7 µM
  TGI: > 100 µM
HCT-15 colon
  GI50: 32.8 µM
  TGI: > 100 µM
SK-OV-3 ovarian
  GI50: > 100 µM
  TGI: > 100 µM
HCT-116 colon
  GI50: 80.1 µM
  TGI: > 100 µM
OVCAR-4 ovarian
  GI50: 27.7 µM
  TGI: > 100 µM
RXF 393 renal
  GI50: 19.3 µM
  TGI: > 100 µM
HS 578T breast
  GI50: 39.3 µM
  TGI: > 100 µM
LOX IMVI melanoma
  GI50: 46 µM
  TGI: > 100 µM
NCI-H522 lung
  GI50: 42.3 µM
  TGI: > 100 µM
OVCAR-8 ovarian
  GI50: 79.8 µM
  TGI: > 100 µM
SR leukemia
  GI50: 53.1 µM
  TGI: > 100 µM
UACC-62 melanoma
  GI50: 37.7 µM
  TGI: > 100 µM
NCI-H23 lung
  GI50: > 100 µM
  TGI: > 100 µM
CAKI-1 renal
  GI50: 40.1 µM
  TGI: > 100 µM
UACC-257 melanoma
  GI50: > 100 µM
  TGI: > 100 µM
SF-539 CNS
  GI50: > 100 µM
  TGI: > 100 µM
A498 renal
  GI50: 0.533 µM
  TGI: 78.7 µM
RPMI-8226 leukemia
  GI50: 32 µM
  TGI: > 100 µM
K-562 leukemia
  GI50: 35.5 µM
  TGI: > 100 µM
HOP-92 NSCLC
  GI50: 28.9 µM
  TGI: > 100 µM
